Reference: US9896441B2 (Lycera Corporation, priority 2014, dated 2018)

Key:
RORγ-LBD = molecular target: T1, RORγ-LBD (Homo sapiens, UniProt P51449); experiment: RORγ-Ligand Binding Domain (LBD) TR-FRET Assay; assay type: biochemical; conditions: for TR-FRET Assay Max Response: maximum response;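 as to TR-FRET Assay Max Response: 665/615 nm signal ratio set to 100 without ursolic acid or test compound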
T1 construct: made in house; host or cells: SF9 cells (baculovirus); used as diluted lysate
T1 sequence (P51449 269-508 limits assumed): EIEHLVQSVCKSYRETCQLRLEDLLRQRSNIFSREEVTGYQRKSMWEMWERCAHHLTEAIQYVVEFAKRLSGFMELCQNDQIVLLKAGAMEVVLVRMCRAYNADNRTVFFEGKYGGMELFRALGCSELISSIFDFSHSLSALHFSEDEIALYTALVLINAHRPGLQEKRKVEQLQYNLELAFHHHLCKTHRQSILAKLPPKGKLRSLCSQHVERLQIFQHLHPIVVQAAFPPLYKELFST
In short: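 Lysate from SF9 cells expressing His-RORγ-LBD is diluted to about 3 nM final in 50 mM Tris pH 7.0 assay buffer. A biotin-tagged SRC1 LXXLL peptide goes in at 200 nM final, plus ursolic acid at 2 μM final. Test compounds carry 1% DMSO final; signal read by TR-FRET.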

Gal4-RORγ-LBD = molecular target: T2, Gal4-RORγ-LBD (Homo sapiens, UniProt P51449); experiment: Gal4-RORγ Luciferase Reporter Assay in HEK-293T Cells; assay type: cell-based; conditions: HEK-293 cells; for Gal4-RORγ Assay Max Response: maximum response
T2 construct: expressed in transfected cells
T2 sequence (P51449 269-508 limits assumed): T1 sequence (P51449 269-508 limits assumed)
In short: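 Max Response was taken as the upper plateau of a 4-parameter logistic fit of luciferase signal, normalized to 100 for wells without ursolic acid or compound. Transiently Gal4-RORγ-LBD/Gal4-luc transfected HEK-293 cells carrying […] ursolic acid were incubated with test compounds (0.2% DMSO) overnight at 37 °C and read with One-Glo.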

[1] = luciferase reporter, in presence of ursolic acid
[2] = luciferase reporter, with ursolic acid

Structure (SMILES)	EC50 (RORγ-LBD; RORγ-LBD TR-FRET)	EC50 (Gal4-RORγ-LBD; [2])	other results
COC(=O)c1ccc(C(=O)NC[C@H]2CN(S(=O)(=O)c3ccc(F)c(OC)c3)c3cc(/C=C(\C)c4c(F)cccc4Cl)ccc3O2)cc1 [Example 133, Methyl (S,E)-4-(((6-(2-(2-chloro-6-fluorophenyl)prop-1-en-1-yl)-4-((4-fluoro-3-methoxyphenyl)sulfonyl)-3,4-dihydro-2H-benzo[b][1,4]oxazin-2-yl)methyl)carbamoyl)benzoate]			EC50 (RORγ-LBD; RORγ-LBD TR-FRET assay): < 500 nM; TR-FRET Assay Max Response (RORγ-LBD; RORγ-LBD TR-FRET assay): **** (a value greater than 200); EC50 (Gal4-RORγ-LBD; [1]): < 500 nM; Gal4-RORγ Assay Max Response (Gal4-RORγ-LBD; [1]): * (a value in the range of 30 to 90)
CCOC(=O)[C@@H]1Cc2ccc(OCc3c(F)cccc3Cl)cc2N(S(=O)(=O)c2ccc(F)c(OC)c2)[C@@H]1C			EC50 (RORγ-LBD; with 2 μM ursolic acid (RORγ antagonist), highest test concentration 10 μM): < 500 nM; EC50 (Gal4-RORγ-LBD; ursolic acid present, luciferase readout): 500 to 5000 nM
Cc1ccc(/C=C/c2ccc3c(c2)N(S(=O)(=O)c2cccc(OC(F)F)c2)C[C@H](CCC(=O)O)O3)cc1 [Example 89BE, (S,E)-3-(4-((3-(difluoromethoxy)phenyl)sulfonyl)-6-(4-methylstyryl)-3,4-dihydro-2H-benzo[b][1,4]oxazin-2-yl)propanoic acid]	500 to 5000 nM	> 10000 nM	
O=C(O)CC[C@H]1CN(S(=O)(=O)c2cccc(C(F)(F)F)c2)c2cc(/C=C/c3c(Cl)cc(F)cc3Cl)ccc2O1 [Example 89CM, (S,E)-3-(6-(2,6-dichloro-4-fluorostyryl)-4-((3-(trifluoromethyl)phenyl)sulfonyl)-3,4-dihydro-2H-benzo[b][1,4]-oxazin-2-yl)propanoic acid]	< 500 nM	500 to 5000 nM	
CCOc1nn(CC)cc1S(=O)(=O)N1C[C@H](CCC(=O)O)Oc2ccc(/C=C/c3ccccc3OC(F)(F)F)cc21 [Example 89BA, (S,E)-3-(4-((3-ethoxy-1-ethyl-1H-pyrazol-4-yl)sulfonyl)-6-(2-(trifluoromethoxy)styryl)-3,4-dihydro-2H-benzo[b][1,4]oxazin-2-yl)propanoic acid]	< 500 nM	500 to 5000 nM	
O=C(O)C1CCN(C(=O)CC[C@H]2CN(S(=O)(=O)c3cccc(C(F)(F)F)c3)c3cc(/C=C/c4c(Cl)cccc4C(F)(F)F)ccc3O2)CC1 [Example 129A, (S,E)-1-(3-(6-(2-chloro-6-(trifluoromethyl)styryl)-4-((3-(trifluoromethyl)-phenyl)sulfonyl)-3,4-dihydro-2H-benzo[b]-[1,4]oxazin-2-yl)propanoyl)piperidine-4-carboxylic acid]			EC50 (RORγ-LBD; RORγ-LBD TR-FRET assay): < 500 nM; TR-FRET Assay Max Response (RORγ-LBD; RORγ-LBD TR-FRET assay): **** (a value greater than 200); EC50 (Gal4-RORγ-LBD; [1]): < 500 nM; Gal4-RORγ Assay Max Response (Gal4-RORγ-LBD; [1]): ** (a value in the range of greater than 90 to 150)
CCOc1ncc(Cl)cc1S(=O)(=O)N1C[C@H](CCC(=O)OC)Oc2ccc(/C=C/c3c(F)cccc3Cl)cc21 [Example 89CW, methyl (S,E)-3-(4-((5-chloro-2-ethoxypyridin-3-yl)sulfonyl)-6-(2-chloro-6-fluorostyryl)-3,4-dihydro-2H-benzo[b][1,4]oxazin-2-yl)propanoate]	< 500 nM	500 to 5000 nM	
CCOc1nn(CC)cc1S(=O)(=O)N1C[C@H](CCC(=O)OC)Oc2ccc(/C=C(\C)c3c(Cl)cccc3C(F)(F)F)cc21 [Example 86AX, methyl (S,E)-3-(6-(2-(2-chloro-6-(trifluoromethyl)phenyl)prop-1-en-1-yl)-4-((3-ethoxy-1-ethyl-1H-pyrazol-4-yl)sulfonyl)-3,4-dihydro-2H-benzo[b][1,4]oxazin-2-yl)propanoate]	< 500 nM	500 to 5000 nM	
C/C(=C\c1ccc2c(c1)N(S(=O)(=O)c1cccc(C(F)(F)F)c1)C[C@H](OC(C)(C)C(=O)O)C2)c1c(F)cccc1Cl [Example 173F, (R,E)-2-((7-(2-(2-chloro-6-fluorophenyl)prop-1-en-1-yl)-1-((3-(trifluoromethyl)phenyl)-sulfonyl)-1,2,3,4-tetrahydroquinolin-3-yl)oxy)-2-methylpropanoic acid]			EC50 (RORγ-LBD; RORγ-LBD TR-FRET assay): < 500 nM; TR-FRET Assay Max Response (RORγ-LBD; RORγ-LBD TR-FRET assay): *** (a value in the range of greater than 150 to 200); EC50 (Gal4-RORγ-LBD; [1]): < 500 nM; Gal4-RORγ Assay Max Response (Gal4-RORγ-LBD; [1]): ** (a value in the range of greater than 90 to 150)
C/C(=C\c1ccc2c(c1)N(S(=O)(=O)c1cccc(C(F)(F)F)c1)C[C@H](CCC(=O)N1CCOCC1)O2)c1c(F)cccc1Cl [Example 127B, (S,E)-3-(6-(2-(2-chloro-6-fluorophenyl)prop-1-en-1-yl)-4-((3-(trifluoromethyl)phenyl)sulfonyl)-3,4-dihydro-2H-benzo[b][1,4]oxazin-2-yl)-1-morpholino-propan-1-one]			EC50 (RORγ-LBD; RORγ-LBD TR-FRET assay): < 500 nM; TR-FRET Assay Max Response (RORγ-LBD; RORγ-LBD TR-FRET assay): **** (a value greater than 200); EC50 (Gal4-RORγ-LBD; [1]): < 500 nM; Gal4-RORγ Assay Max Response (Gal4-RORγ-LBD; [1]): ** (a value in the range of greater than 90 to 150)
COC(=O)CC[C@H]1CN(S(=O)(=O)c2cccc(C(F)(F)F)c2)c2cc(/C=C(\C)c3c(F)cccc3Cl)c(C)cc2O1 [Example 55, Methyl (S,E)-3-(6-(2-(2-chloro-6-fluorophenyl)prop-1-en-1-yl)-7-methyl-4-((3-(trifluoromethyl)phenyl)sulfonyl)-3,4-dihydro-2H-benzo[b][1,4]oxazin-2-yl)propanoate]	< 500 nM	< 500 nM	
CCOc1ncc(C(F)(F)F)cc1S(=O)(=O)N1C[C@H](CCC(=O)O)Oc2ccc(/C=C/c3c(F)cccc3Cl)cc21 [Example 89DU, (S,E)-3-(6-(2-chloro-6-fluorostyryl)-4-((2-ethoxy-5-(trifluoromethyl)pyridin-3-yl)sulfonyl)-3,4-dihydro-2H-benzo[b][1,4]oxazin-2-yl)propanoic acid]	< 500 nM	500 to 5000 nM	
CCc1ccccc1/C=C/c1ccc2c(c1)N(S(=O)(=O)c1cccc(OC(F)F)c1)C[C@H](CCC(=O)O)O2 [Example 89AW, (S,E)-3-(4-((3-(difluoromethoxy)phenyl)sulfonyl)-6-(2-ethylstyryl)-3,4-dihydro-2H-benzo[b][1,4]oxazin-2-yl)propanoic acid]	< 500 nM	500 to 5000 nM	
CC1CCCC/C1=C\c1ccc2c(c1)N(S(=O)(=O)c1cccc(C(F)(F)F)c1)C[C@H](CCC(=O)O)O2 (stereo partly drawn) [Example 95Q, 3-((2S)-6-((E)-(2-methylcyclohexylidene)methyl)-4-((3-(trifluoromethyl)phenyl)-sulfonyl)-3,4-dihydro-2H-benzo[b][1,4]oxazin-2-yl)propanoic acid]	< 500 nM	< 500 nM	
COc1cc(S(=O)(=O)N2c3cc(/C=C(\C)c4c(F)cccc4Cl)ccc3C[C@@H](O)[C@H]2C)ccc1F (racemic) [Example 169, (2R,3R)-7-((E)-2-(2-Chloro-6-fluorophenyl)prop-1-en-1-yl)-1-((4-fluoro-3-methoxyphenyl)sulfonyl)-2-methyl-1,2,3,4-tetrahydroquinolin-3-ol]			EC50 (RORγ-LBD; RORγ-LBD TR-FRET assay): < 500 nM; TR-FRET Assay Max Response (RORγ-LBD; RORγ-LBD TR-FRET assay): *** (a value in the range of greater than 150 to 200); EC50 (Gal4-RORγ-LBD; [1]): < 500 nM; Gal4-RORγ Assay Max Response (Gal4-RORγ-LBD; [1]): * (a value in the range of 30 to 90)

Further lines, with some results ahead:

EC50 (RORγ-LBD; RORγ-LBD TR-FRET)	EC50 (Gal4-RORγ-LBD; [2])	Structure (SMILES)	other results
5000 to 10000 nM	> 10000 nM	CCOc1nn(CC)cc1S(=O)(=O)N1C[C@H](CCC(=O)O)Oc2ccc(/C=C/c3ncccc3F)cc21 [Example 89W, (S,E)-3-(4-((3-ethoxy-1-ethyl-1H-pyrazol-4-yl)sulfonyl)-6-(2-(3-fluoropyridin-2-yl)vinyl)-3,4-dihydro-2H-benzo[b][1,4]-oxazin-2-yl)propanoic acid]	
< 500 nM	500 to 5000 nM	CCn1cc(S(=O)(=O)N2C[C@H](CCC(=O)O)Oc3ccc(/C=C(\C)c4c(F)cccc4Cl)cc32)c(OCCO)n1 [Example 80, (S,E)-3-(6-(2-(2-Chloro-6-fluorophenyl)prop-1-en-1-yl)-4-((1-ethyl-3-(2-hydroxyethoxy)-1H-pyrazol-4-yl)sulfonyl)-3,4-dihydro-2H-benzo[b][1,4]oxazin-2-yl)propanoic acid]	
< 500 nM	< 500 nM	C/C(=C\c1ccc2c(c1)N(S(=O)(=O)c1cccc(C(F)(F)F)c1)C[C@H]([C@@H](C)O)O2)c1c(F)cccc1Cl [Example 98, (R)-1-((R)-6-((E)-2-(2-Chloro-6-fluorophenyl)prop-1-en-1-yl)-4-((3-(trifluoromethyl)phenyl)sulfonyl)-3,4-dihydro-2H-benzo[b][1,4]oxazin-2-yl)ethan-1-ol]	
< 500 nM	< 500 nM	CCOc1nn(CC)cc1S(=O)(=O)N1C[C@H](CCC(=O)OC)Oc2ccc(/C=C/c3c(C)cccc3F)cc21 [Example 89AH, (S,E)-methyl 3-(4-((3-ethoxy-1-ethyl-1H-pyrazol-4-yl)sulfonyl)-6-(2-fluoro-6-methylstyryl)-3,4-dihydro-2H-benzo[b][1,4]-oxazin-2-yl)propanoate]	
< 500 nM	500 to 5000 nM	COC(=O)CC[C@H]1CN(S(=O)(=O)c2cccc(C(F)(F)F)c2)c2cc(/C=C(\C)c3c(F)cccc3Cl)c(Cl)cc2O1 [Example 45, (S,E)-Methyl 3-(7-chloro-6-(2-(2-chloro-6-fluorophenyl)prop-1-en-1-yl)-4-((3-(trifluoromethyl)phenyl)sulfonyl)-3,4-dihydro-2H-benzo[b][1,4]oxazin-2-yl)propanoate]	
